Experiments:
[1] = Test of skin stimulation (sealed filter paper on inner side of left upper arm); type: in vivo, human; parameters: key to primary stimulation (skin stimulation): −: negative (no reaction); ±: rubedo alone; +: rubedo and humectation or papula; ++: rubedo, edema and marked papula or small blisters; details: for primary stimulation (skin stimulation): 0.02 ml, one per person
Description: The test of skin stimulation was conducted in accordance with the following method.
A sterilizing disinfectant in an amount of 0.02 ml was placed on a filter paper and attached to a portion at the inner side of the left upper arm of a person in a manner such that the paper was sealed. The test was conducted with five male persons (A to E) and five female persons (F to J). The primary stimulation was evaluated 30 minutes and 24 hours after the attachment of the paper and the result was classified into four levels. The criterion for the classification was as follows:
Criterion for the Classification
−: negative (no reaction)
+: rubedo and humectation or papula
++: rubedo, edema and marked papula or small blisters

[2] = tested on: Pseudomonus aeruginosa (P. aeruginosa, IFO 3080); test: Minimum bactericidal concentration (disinfecting effect), 1 minute contact; type: cell-based; details: contact 1 minute, culture 37° C. 20 hours
Description: (§1) The disinfecting effect was evaluated in accordance with the following methods.
(§2) Seven microorganisms, i.e., Staphyrococcus aureus (S. aureus, ATCC 6538P), methicillin-resistant S. aureus (MRSA IID 1677), methicillin-resistant S. aureus (MRSA of a clinically isolated strain), Escherichia coli (E. coli, IFO 3301), Klebsiella pneumoniae (pneumoniae, IFO ATCC 4352), Pseudomonus aeruginosa (P. aeruginosa, IFO 3080) and Serratia marcescens (S. marcescens of a clinically isolated strain), were used for the test.
(§3) A test microorganism in an inoculating loop to streak a portion of 8 ml of a culture medium of soybean casein digest (SCD) on the surface and cultured at 37° C. for 18 hours. The obtained medium in an amount of 1 ml was diluted with the SCD culture medium to 1/10 of the original concentration. The diluted medium in an amount of 2 ml was brought into contact with 100 ml of the SCD culture medium. The obtained medium was cultured at 37° C. for 2 hours except that the medium containing P. aeruginosa was cultured for 4 hours and a liquid of a test microorganism was prepared. The liquid of a test microorganism contained 10^6 to 10^8 live microorganisms per 1 ml of the liquid.
(§4) A series of solutions containing a composition of a sterilizing disinfectant were prepared by dilution with a physiological saline in a manner such that each solution was diluted to one half the concentration to prepare a solution having the next lower concentration. The solutions of a series each in an amount of 10 ml were separately placed into test tubes, treated for disinfection in an autoclave and mixed with a liquid of a test microorganism in an amount of 0.1 ml. After the sterilizing disinfectant and the test microorganism were kept in contact with each other for 1 minute, the obtained liquid for inoculation in an amount of 0.1 ml was added to each of three SCD-LP (lecithin polysolvate) culture media (9 ml, each) which had been disinfected in advance. After the inoculated media were cultured at 37° C. for 20 hours, the presence or the absence of turbidity in the media was examined. When the medium was transparent, it was decided that no growth of the microorganism could be recognized and the result for this medium was expressed as −. When the medium was turbid, it was decided that growth of the microorganism could be recognized and the result for this medium was expressed as+. […] The minimum concentration of the composition of a sterilizing disinfectant which gave the result of − was used as the minimum bactericidal concentration (MBC).

[3] = tested on: methicillin-resistant S. aureus (MRSA IID 1677); test: as above; type: cell-based; details: contact 1 minute, culture 37° C. 20 hours
Description: as §1, §2, §3, §4

[4] = tested on: Serratia marcescens (S. marcescens of a clinically isolated strain); test: as above; type: cell-based; details: contact 1 minute, culture 37° C. 20 hours
Description: as §1, §2, §3, §4

[5] = tested on: Staphyrococcus aureus (S. aureus, ATCC 6538P); test: as above; type: cell-based; details: contact 1 minute, culture 37° C. 20 hours
Description: as §1, §2, §3, §4

[6] = tested on: Klebsiella pneumoniae (pneumoniae, IFO ATCC 4352); test: as above; type: cell-based; details: K. pneumoniae; contact 1 minute; culture 37° C. 20 hours
Description: as §1, §2, §3, §4

[7] = tested on: Escherichia coli (E. coli, IFO 3301); test: as above; type: cell-based; details: contact 1 minute, culture 37° C. 20 hours
Description: as §1, §2, §3, §4

[8] = tested on: methicillin-resistant S. aureus (MRSA of a clinically isolated strain); test: as above; type: cell-based; details: contact 1 minute, culture 37° C. 20 hours
Description: as §1, §2, §3, §4

Substance	primary stimulation (skin stimulation) ([1]; 30 minutes after attachment)	primary stimulation (skin stimulation) ([1]; 24 hours after attachment)	skin disorder ([1]; summary in words of the test of skin stimulation)	Minimum batericidal concentration [2] [ppm]	Minimum batericidal concentration [3] [ppm]	Minimum batericidal concentration [4] [ppm]	Minimum batericidal concentration [5] [ppm]	Minimum batericidal concentration [6] [ppm]	Minimum batericidal concentration [7] [ppm]	Minimum batericidal concentration [8] [ppm]
benzalkonium chloride [Comparative Example 5]	− and ±	+ and ++	marked skin disorder	–	–	–	–	–	–	–
benzalkonium chloride [Comparative Example 4]	–	–	–	250	32	64	32	64	64	64
